For orientation: IC50 means the concentration at which inhibition is half-maximal. The term inhibition denotes the percentage by which the read-out fell short of the control. Read a high inhibition as strong suppression.

Here are results for twelve compounds from article PMC12640937, “Integrating drug effects on individual cardiac ionic currents and cardiac action potentials to understand nonclinical translation to clinical ECG changes” (Frontiers in Pharmacology, 2025).

Several values for one entry are separate records, joined by “and”; a condition that tells them apart may be missing. Equal entries are not always repeated. Where two headings read alike, the source gives them in different places.

Series [1] has as its system hERG. Conditions: ref Crumb et al., 2016, cited from earlier work.
The test system of series [2] is adult human primary ventricular trabeculae. The series can be described thus: Action potential recordings from adult human ventricular trabeculae (sharp electrode).
For series [3], the system named is IBa or Ba2+ current through CaV1.2 channels. As to conditions: read-out: IBa (Ba2+ current through CaV1.2) IC50; prior study; 36 °C; ref Crumb et al., 2016; cited from earlier work.
The conditions of series [4]: calculated with MW and protein binding; ref Johannesen et al., 2016; cited from earlier work.
Series [5] has as its target hERG current (HEK293 cells expressing the hERG1a subunit) (Homo sapiens, UniProt Q12809). Kind of series: cell-based.
For the next series, the system named is clinical ECG. Conditions: lidocaine or mexiletine co-administered with dofetilide; diltiazem with moxifloxacin; ref Johannesen et al., 2016; cited from earlier work.
For series [6] the following is noted: used to calculate free Cmax; no reference given; cited from earlier work.
The next series has as its system INaL (NaV1.5 channels). As to conditions: prior study, ref Crumb et al., 2016, cited from earlier work; for IC50: read-out: INaL IC50, veratridine, 36 °C.
In series [7] the target is hERG (Homo sapiens, UniProt Q12809). Kind of series: in vitro. Conditions: HEK293 cells stably expressing the hERG1a subunit, pH 7.4.
hERG (Homo sapiens, UniProt Q12809), sequence (Q12809 whole entry): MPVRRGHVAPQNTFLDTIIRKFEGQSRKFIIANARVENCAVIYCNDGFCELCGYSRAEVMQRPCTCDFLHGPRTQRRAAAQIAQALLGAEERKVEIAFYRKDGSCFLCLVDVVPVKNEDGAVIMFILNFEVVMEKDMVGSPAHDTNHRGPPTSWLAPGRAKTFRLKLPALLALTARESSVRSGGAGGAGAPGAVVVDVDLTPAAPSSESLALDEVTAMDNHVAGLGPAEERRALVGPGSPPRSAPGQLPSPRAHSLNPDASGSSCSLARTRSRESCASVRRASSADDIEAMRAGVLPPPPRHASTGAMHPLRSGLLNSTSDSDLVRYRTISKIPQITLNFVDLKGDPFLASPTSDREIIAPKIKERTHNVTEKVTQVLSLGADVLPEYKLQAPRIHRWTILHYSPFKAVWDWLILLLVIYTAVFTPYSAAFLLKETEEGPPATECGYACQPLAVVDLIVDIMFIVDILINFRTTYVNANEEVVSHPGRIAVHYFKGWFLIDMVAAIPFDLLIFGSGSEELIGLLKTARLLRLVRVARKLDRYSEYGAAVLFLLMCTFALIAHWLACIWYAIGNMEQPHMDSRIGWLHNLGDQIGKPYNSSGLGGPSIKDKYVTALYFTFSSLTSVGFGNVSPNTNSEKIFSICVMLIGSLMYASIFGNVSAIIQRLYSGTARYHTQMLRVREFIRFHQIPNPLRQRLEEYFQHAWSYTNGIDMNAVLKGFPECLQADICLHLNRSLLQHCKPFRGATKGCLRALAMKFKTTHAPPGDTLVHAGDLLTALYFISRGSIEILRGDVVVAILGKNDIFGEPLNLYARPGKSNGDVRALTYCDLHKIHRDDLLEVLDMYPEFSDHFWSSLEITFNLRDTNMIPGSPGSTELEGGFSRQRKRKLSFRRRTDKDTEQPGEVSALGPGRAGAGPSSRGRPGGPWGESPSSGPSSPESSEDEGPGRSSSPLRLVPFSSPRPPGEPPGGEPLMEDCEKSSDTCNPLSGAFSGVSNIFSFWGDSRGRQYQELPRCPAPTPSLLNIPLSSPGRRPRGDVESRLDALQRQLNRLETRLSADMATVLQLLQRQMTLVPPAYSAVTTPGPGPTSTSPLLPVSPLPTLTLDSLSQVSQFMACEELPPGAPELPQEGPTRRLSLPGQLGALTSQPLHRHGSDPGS
In series [8] the test system is adult human primary ventricular trabeculae. Conditions: mexiletine at 3X concentration as tested here; ref Qu et al., 2017; cited from earlier work.
In series [9] the test system is hERG1a and hERG1a/1b channels. As to conditions: cited from earlier work.
The next series concerns INaL. On the set-up: method as in Wu et al., 2019. Conditions: room temperature, ref Wu et al., 2019, cited from earlier work.
The subject of series [10] is Ba2+ current through CaV1.2 channels. Details: method as in Ren et al., 2022. Conditions: ∼37 °C; ref Ren et al., 2022; cited from earlier work.
The mark [11] stands for this setting: diltiazem 3.84 then 38.4 µM or nifedipine 0.23 then 1 µM, alone.

hERG current (HEK293 cells expressing the hERG1a subunit), sequence (Q12809 whole entry): as above

With `CN(CCOc1ccc(NS(C)(=O)=O)cc1)CCc1ccc(NS(C)(=O)=O)cc1` [dofetilide], the IC50 in the series with hERG [1] (read-out: hERG IC50, prior study, 36 °C) was […]. Moreover, in series [2] (dofetilide 0.1 µM alone, 1 Hz), the “AP triangulation (APD90 minus APD30)” value was “resulting in AP triangulation”. Besides, the AP triangulation entry in series [2] (dofetilide in the presence of diltiazem or nifedipine) is “induced AP triangulation”.
Consider `Cc1cccc(C)c1OCC(C)N` (stereo not shown) [mexiletine], for which the half-maximal inhibitory concentration (IC50) in series [3] is 38.2 µM; in series [5], 55.6 µM; in the series with INaL (NaV1.5 channels), 9.3 µM and 9 µM. Further, in series [4], the “free clinical Cmax” value was 3.6 µM. Besides, the hERG current inhibition in the series on hERG [1] (10 μM, highest concentration tested in prior study) is given as approximately 10%. In the series with clinical ECG, the “effect on hERG block-induced QTC and J-TpeakC prolongation” value was “shortened by co-administration”. In series [6], the “percent protein binding (PB)” value is reported as 55%. The inhibition at 10 µM against hERG [7] was approximately 20%. Moreover, the AP height result in series [8] is recorded as “reduced AP height”.
On to `COC(=O)C1=C(C)NC(C)=C(C(=O)OC)C1c1ccccc1[N+](=O)[O-]` [nifedipine], for which, in series [2] (setting [11]), the AP triangulation result was “no AP triangulation”.
In the case of `C=CCN1CC[C@]23c4c5ccc(O)c4O[C@H]2C(=O)CC[C@@]3(O)[C@H]1C5` [naloxone], the “pharmacological difference between hERG1a and hERG1a/1b channels” value in series [9] (ref Tran et al., 2020) is listed as “no pharmacological differences”.
Turning to `CCN(CC)CC(=O)Nc1c(C)cccc1C` [lidocaine], the results for the IC50 in the series on INaL (read-out: INaL IC50 obtained in ATX-II) and with INaL (read-out: INaL IC50 obtained in veratridine) were 31.7 µM and 395 µM, respectively.
Take buprenorphine: in series [9], the “pharmacological difference between hERG1a and hERG1a/1b channels” value is “no pharmacological differences”.
In the case of `O=C(NCC1CCCCN1)c1cc(OCC(F)(F)F)ccc1OCC(F)(F)F` (stereo not shown) [flecainide], in series [8], the AP height entry is listed as “reduced AP height”.
For `COc1ccccc1OCC(O)CN1CCN(CC(=O)Nc2c(C)cccc2C)CC1` (stereo not shown) [ranolazine], in series [8], the AP height result is on record as “did not”.
As for `Nc1nnc(-c2cccc(Cl)c2Cl)c(N)n1` [lamotrigine], the AP height entry in series [8] is “reduced AP height”.
For the compound `CCC(=O)C(CC(C)N(C)C)(c1ccccc1)c1ccccc1` (stereo not shown) [methadone], in [9], the “pharmacological difference between hERG1a and hERG1a/1b channels” value is given as “no pharmacological differences”.
Regarding `O=C1CC[C@@]2(O)[C@H]3Cc4ccc(O)c5c4[C@@]2(CCN3CC2CC2)[C@H]1O5` [naltrexone], the “pharmacological difference between hERG1a and hERG1a/1b channels” value in [9] (ref Tran et al., 2020) was “no pharmacological differences”.
Turning to `COc1ccc([C@@H]2Sc3ccccc3N(CCN(C)C)C(=O)[C@@H]2OC(C)=O)cc1` [diltiazem], the IC50 in series [3] is 0.112 µM; in series [10] it was 0.8 µM; in the series with INaL (NaV1.5 channels), 24.5 µM. Moreover, the “hERG current inhibition when 50% of CaV1.2 channels were blocked” value in the series with hERG [1] (prior study) is listed as “no inhibition”. Further, the AP triangulation entry in series [2] (setting [11]) is given as “resulting in AP triangulation”. Besides, the “INaL inhibition when 50% of CaV1.2 channels were blocked” value with INaL (NaV1.5 channels) is reported as “no inhibition”.
